# Source: publication PMC10329608, “Investigation of the structure-activity relationship at the N-terminal part of minigastrin analogs” (EJNMMI Research, 2023)
# Where two headings read alike, the source gives them in different places. Non-standard residues stand in square brackets, D forms with d. Residues, ends and D or L forms follow the SMILES beside them. *: point of attachment. DOTA = O=C(O)CN1CCN(CC(=O)O)CCN(CC(=O)*)CCN(CC(=O)O)CC1; 1Nal = N[C@@H](Cc1cccc2ccccc12)C(=O)O; NMeNle = CCCC[C@H](NC)C(=O)O; PEG4 = NCCOCCOCCOCCOCCC(=O)O
# Experiments:
# A431-CCK-2R tumor = conditions: mouse, in vivo, 1 h; cited from earlier work
# CCK-2R = target: T1, CCK-2R (Rattus norvegicus, UniProt P30553); assay: Competitive binding (IC50) on AR42J cells against [177Lu]Lu-DOTA-PP-F11N; conditions: AR42J cells, 3 h
# T1 construct: endogenous in cells; host or cells: AR42J cells
# T1 sequence (P30553 1-452): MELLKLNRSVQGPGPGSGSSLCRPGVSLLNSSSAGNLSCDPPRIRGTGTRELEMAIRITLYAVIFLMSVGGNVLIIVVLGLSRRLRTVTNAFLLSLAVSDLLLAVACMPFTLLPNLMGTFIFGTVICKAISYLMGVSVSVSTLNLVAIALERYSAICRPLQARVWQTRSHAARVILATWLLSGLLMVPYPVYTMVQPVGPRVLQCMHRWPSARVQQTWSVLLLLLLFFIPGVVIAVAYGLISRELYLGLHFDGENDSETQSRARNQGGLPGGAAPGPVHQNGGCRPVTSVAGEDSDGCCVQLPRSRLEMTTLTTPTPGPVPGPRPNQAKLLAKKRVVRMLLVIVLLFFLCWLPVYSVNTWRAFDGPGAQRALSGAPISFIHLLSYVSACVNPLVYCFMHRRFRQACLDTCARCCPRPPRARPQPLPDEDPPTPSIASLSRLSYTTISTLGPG
# Method: IC50 values of all compounds were determined according to a previously published procedure. In brief, competitive binding studies were performed via co-incubation of increasing concentrations of the peptide of interest (10^−10 to 10^–4 M, in triplicate) together with the reference compound [^177Lu]Lu-DOTA-PP-F11N (0.3 pmol/well) on AR42J cells (2 × 10^5 cells per 1 mL/well) at 37 °C for 3 h. Table S1. CCK-2R affinity and lipophilicity data of the compounds evaluated. Affinity data were determined on AR42J cells (2.0 x 10^5 cells/well/mL) and [^177Lu]Lu-DOTA-PP-F11N (0.3 pmol/well) as radiolabeled reference (3 h, 37°C, RPMI 1640, 5 mM L-Gln, 5 mL non-essential amino acids (100x), 10% FCS + 5% BSA (v/v)).
# [1] = format: physicochemical; conditions: pH 7.4
# Method: Lipophilicity (depicted as n-octanol-phosphate-buffered saline solution (PBS, pH = 7.4) distribution coefficient, logD7.4) of ^177Lu-labeled minigastrin analogs was evaluated as previously published.
# [2] = [177Lu]Lu-DOTA-PP-F11N as reference, 37 °C, values in text, read-out: IC50 (CCK-2R affinity)
IC50 (CCK-2R; [2]) [nM],logD7.4 [1],"IC50 (CCK-2R; 2.0 x 10^5 cells/well/mL, [177Lu]Lu-DOTA-PP-F11N 0.3 pmol/well as reference, 37°C, natLu-labeled DOTA peptides, tetrapeptides unlabeled, read-out: IC50) [nM]",logD [1],Compound,activity levels in the tumor (A431-CCK-2R tumor) [%ID/g],activity uptake in the kidneys (A431-CCK-2R tumor) [%ID/g]
,,,,DOTA-D-Glu-Ala-Tyr-Gly-Trp-(N-Me)Nle-Asp-1-Nal-NH2 [[^68 Ga]Ga-DOTA-MGS5],23.3 ± 4.7,5.7 ± 1.4
5.2 ± 0.8,− 2.21 ± 0.08,,,"CCCC[C@@H](C(=O)N[C@@H](CC(=O)O)C(=O)N[C@@H](Cc1cccc2ccccc12)C(N)=O)N(C)C(=O)[C@H](Cc1c[nH]c2ccccc12)NC(=O)CNC(=O)[C@H](Cc1ccc(O)cc1)NC(=O)[C@H](C)NC(=O)[C@@H](CCC(=O)O)NC(=O)CN1CCN(CC(=O)O)CCN(CC(=O)O)CCN(CC(=O)O)CC1 [[^natLu]Lu-DOTA-MGS5, DOTA-D-Glu-Ala-Tyr-Gly-Trp-(N-Me)Nle-Asp-1-Nal-NH2, metal not drawn, reference compound]",,
7.6 ± 0.9,,7.64 ± 0.86,-2.21 ± 0.07,"CCCC[C@@H](C(=O)N[C@@H](CC(=O)O)C(=O)N[C@@H](Cc1cccc2ccccc12)C(N)=O)N(C)C(=O)[C@H](Cc1c[nH]c2ccccc12)NC(=O)CCOCCOCCOCCOCCNC(=O)CN1CCN(CC(=O)O)CCN(CC(=O)O)CCN(CC(=O)O)CC1 [[^nat/177Lu]Lu-DOTA-CCK-64, metal not drawn] ({DOTA-PEG4}-W[NMeNle]D[1Nal]-NH2)",,
